Values joined by “and” are separate entries in the source; they are usually repeats but may differ in a detail not shown here. Equal values may be shown once. Toxic doses and inconclusive results are not listed.

The assay relates to L1210 leukemia ip in BDF1 mice, survival T/C. Kind of assay: NCI In Vivo Anticancer Drug Screen. Data for tumor model L1210 Leukemia (intraperitoneal) in B6D2F1 (BDF1) mice. As to conditions: endpoint: mean survival time, higher = longer survival. An outline of the steps:
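Transplanted-tumor mice were given test agent; controls received vehicle only. Survival readings from the two groups were divided (treated over control).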

[1] abbreviates: dose: 75.0 mg/kg/injection, schedule: Q01DX001 (ip), vehicle: saline.
[2] abbreviates: dose: 150.0 mg/kg/injection, schedule: Q01DX001 (ip), vehicle: saline.
The mark [3] stands for this setting: dose: 100.0 mg/kg/injection, schedule: Q04DX003 (ip), vehicle: Klucel (hydroxypropylcellulose) (HPC).
Setting [4] is: dose: 200.0 mg/kg/injection, schedule: Q04DX003 (ip), vehicle: Klucel (hydroxypropylcellulose) (HPC).
Where [5] appears, read: dose: 400.0 mg/kg/injection, schedule: Q04DX003 (ip), vehicle: Klucel (hydroxypropylcellulose) (HPC).
Setting [6] is: dose: 100.0 mg/kg/injection, schedule: Q01DX009 (ip), vehicle: saline with Tween-80.
Setting [7] is: dose: 200.0 mg/kg/injection, schedule: Q01DX009 (ip), vehicle: saline with Tween-80.
Setting [8] is: dose: 25.0 mg/kg/injection, schedule: Q01DX001 (ip), vehicle: Klucel (hydroxypropylcellulose) (HPC).
Setting [9] is: dose: 100.0 mg/kg/injection, schedule: Q01DX001 (ip), vehicle: Klucel (hydroxypropylcellulose) (HPC).

For `CCN(CC)CCNC(c1ccc(OC)cc1)C(Cl)(Cl)Cl` (configuration not stated), the T/C is, setting by setting: under setting [1], 97 % of control; under setting [2], 91 % of control.
Take `COC(=O)c1cc(SC)nc(SC)n1`: the T/C is 90 % of control under setting [3], 111 % of control under setting [4] and 101 % of control under setting [5].
As for `CSC(c1ccc(Oc2ccccc2)cc1)=[N+]1CCCCC1`, the T/C is 105 % of control (dose: 9.38 mg/kg/injection, schedule: Q01DX001 (ip), vehicle: steriod suspending solution); 103 % of control (dose: 18.75 mg/kg/injection, schedule: Q01DX001 (ip), vehicle: steriod suspending solution); 105 % of control (dose: 37.5 mg/kg/injection, schedule: Q01DX001 (ip), vehicle: steriod suspending solution).
Consider `O=C/C=C/c1cccnc1`, for which the T/C by setting is: (dose: 25.0 mg/kg/injection, schedule: Q01DX009 (ip), vehicle: saline with Tween-80) 92 % of control; (dose: 50.0 mg/kg/injection, schedule: Q01DX009 (ip), vehicle: saline with Tween-80) 100 % of control; under setting [6], 101 % of control; under setting [7], 99 % of control.
Consider `Cc1ccc(S(=O)C(c2ccccc2)C(c2ccccc2)C(C)O)cc1` (configuration not stated), for which the T/C was 89 % of control under setting [6]; 89 % of control under setting [7]; 91 % of control (dose: 400.0 mg/kg/injection, schedule: Q01DX009 (ip), vehicle: saline with Tween-80).
In the case of `Nc1ccc(CSc2ccc(Cl)cc2)cc1`, the T/C (dose: 12.5 mg/kg/injection, schedule: Q01DX009 (ip), vehicle: Klucel (hydroxypropylcellulose) (HPC)) was 94 % of control; the T/C (dose: 25.0 mg/kg/injection, schedule: Q01DX009 (ip), vehicle: Klucel (hydroxypropylcellulose) (HPC)) is 97 % of control; the T/C (dose: 50.0 mg/kg/injection, schedule: Q01DX009 (ip), vehicle: Klucel (hydroxypropylcellulose) (HPC)) is 87 % of control; the T/C (dose: 75.0 mg/kg/injection, schedule: Q01DX009 (ip), vehicle: Klucel (hydroxypropylcellulose) (HPC)) is 88 % of control; the T/C (dose: 170.0 mg/kg/injection, schedule: Q01DX009 (ip), vehicle: Klucel (hydroxypropylcellulose) (HPC)) was 94 % of control.
In the case of `CCOC(=O)C1(C)OCCO1`, the T/C reads like this: (dose: 100.0 mg/kg/injection, schedule: Q01DX009 (ip), vehicle: saline) 101 % of control; (dose: 100.0 mg/kg/injection, schedule: Q04DX003 (ip), vehicle: saline) 103 % of control; (dose: 200.0 mg/kg/injection, schedule: Q01DX009 (ip), vehicle: saline) 100 % of control; (dose: 200.0 mg/kg/injection, schedule: Q04DX003 (ip), vehicle: saline) 96 % of control; (dose: 400.0 mg/kg/injection, schedule: Q01DX009 (ip), vehicle: saline) 95 % of control; (dose: 400.0 mg/kg/injection, schedule: Q04DX003 (ip), vehicle: saline) 99 % of control.
`OC1(c2ccccc2)CCN(Cc2ccccc2)CC1`: the T/C reads like this: under setting [8], 106 % of control; (dose: 50.0 mg/kg/injection, schedule: Q01DX001 (ip), vehicle: Klucel (hydroxypropylcellulose) (HPC)) 118 % of control; under setting [9], 93 % of control and 107 % of control.
Take `O=S(=O)(c1cc(Cl)ccc1Cl)N1CCc2ccccc2C1`: the T/C reads like this: (dose: 100.0 mg/kg/injection, schedule: Q04DX002 (ip), vehicle: gum acacia) 104 % of control; (dose: 200.0 mg/kg/injection, schedule: Q04DX002 (ip), vehicle: gum acacia) 93 % of control; (dose: 400.0 mg/kg/injection, schedule: Q04DX002 (ip), vehicle: gum acacia) 93 % of control.
For the compound `CN1CC2CCCCC1C2OC(=O)C(c1ccccc1)c1ccccc1` (configuration not stated), the T/C is 110 % of control under setting [1] and 101 % of control under setting [2].
In the case of `CC(C)Oc1ccc(CC(N)C(=O)O)cc1N(CCCl)CCCl` (configuration not stated), the T/C is 108 % of control (dose: 0.44 mg/kg/injection, schedule: Q01DX009 (ip), vehicle: carboxymethylcellulose (CMC)); 120 % of control (dose: 0.5 mg/kg/injection, schedule: Q01DX009 (ip), vehicle: saline); 121 % of control (dose: 0.6 mg/kg/injection, schedule: Q01DX009 (ip), vehicle: carboxymethylcellulose (CMC)); 111 % of control (dose: 0.66 mg/kg/injection, schedule: Q01DX009 (ip), vehicle: carboxymethylcellulose (CMC)); 124 % of control (dose: 1.0 mg/kg/injection, schedule: Q01DX009 (ip), vehicle: carboxymethylcellulose (CMC)); 114 % of control (dose: 1.0 mg/kg/injection, schedule: Q01DX009 (ip), vehicle: saline). The T/C is, setting by setting: (dose: 1.5 mg/kg/injection, schedule: Q01DX001 (ip), vehicle: carboxymethylcellulose (CMC)) 108 % of control; (dose: 2.0 mg/kg/injection, schedule: Q01DX009 (ip), vehicle: saline) 117 % of control; (dose: 2.2 mg/kg/injection, schedule: Q01DX001 (ip), vehicle: carboxymethylcellulose (CMC)) 114 % of control; (dose: 3.3 mg/kg/injection, schedule: Q01DX001 (ip), vehicle: carboxymethylcellulose (CMC)) 119 % of control; (dose: 3.3 mg/kg/injection, schedule: Q01DX009 (ip), vehicle: carboxymethylcellulose (CMC)) 158 % of control; (dose: 5.0 mg/kg/injection, schedule: Q01DX001 (ip), vehicle: carboxymethylcellulose (CMC)) 114 % of control. The T/C runs as follows: (dose: 5.0 mg/kg/injection, schedule: Q01DX001 (ip), vehicle: saline with Tween-80) 116 % of control; (dose: 5.0 mg/kg/injection, schedule: Q01DX009 (ip), vehicle: carboxymethylcellulose (CMC)) 164 % of control and 166 % of control; (dose: 7.5 mg/kg/injection, schedule: Q01DX001 (ip), vehicle: saline with Tween-80) 116 % of control; (dose: 7.5 mg/kg/injection, schedule: Q01DX009 (ip), vehicle: carboxymethylcellulose (CMC)) 205 % of control; (dose: 10.0 mg/kg/injection, schedule: Q01DX001 (ip), vehicle: saline with Tween-80) 116 % of control; (dose: 10.0 mg/kg/injection, schedule: Q01DX009 (ip), vehicle: carboxymethylcellulose (CMC)) 213 % of control. Further, the T/C was 124 % of control (dose: 15.0 mg/kg/injection, schedule: Q01DX001 (ip), vehicle: carboxymethylcellulose (CMC)); 123 % of control (dose: 15.0 mg/kg/injection, schedule: Q01DX009 (ip), vehicle: carboxymethylcellulose (CMC)); 177 % of control under setting [8]; 90 % of control (dose: 30.0 mg/kg/injection, schedule: Q01DX009 (ip), vehicle: saline).
With `CC(C)(C)NC(=O)NC(C)(C)C`, the T/C reads like this: (dose: 50.0 mg/kg/injection, schedule: Q04DX002 (ip), vehicle: Klucel (hydroxypropylcellulose) (HPC)) 95 % of control; (dose: 100.0 mg/kg/injection, schedule: Q04DX002 (ip), vehicle: Klucel (hydroxypropylcellulose) (HPC)) 92 % of control; (dose: 200.0 mg/kg/injection, schedule: Q04DX002 (ip), vehicle: Klucel (hydroxypropylcellulose) (HPC)) 103 % of control.
Turning to `CCCCN=C=S`, the T/C is 104 % of control (dose: 100.0 mg/kg/injection, schedule: Q04DX002 (ip), vehicle: saline with Tween-80) and 91 % of control (dose: 200.0 mg/kg/injection, schedule: Q04DX002 (ip), vehicle: saline with Tween-80).
Regarding `Cc1cc([N+](=O)[O-])ccc1S(=O)(=O)F`, under “dose: 100.0 mg/kg/injection, schedule: Q04DX003 (ip), vehicle: saline with Tween-80”, the T/C is 100 % of control.
Consider `Cc1cccc(N2CCN(c3ccncc3N)CC2C)c1` (configuration not stated), for which the T/C was 102 % of control (dose: 19.0 mg/kg/injection, schedule: Q01DX009 (ip), vehicle: saline with Tween-80); 94 % of control (dose: 37.5 mg/kg/injection, schedule: Q04DX003 (ip), vehicle: saline with Tween-80); 91 % of control (dose: 38.0 mg/kg/injection, schedule: Q01DX009 (ip), vehicle: saline with Tween-80); 89 % of control (dose: 75.0 mg/kg/injection, schedule: Q01DX009 (ip), vehicle: saline with Tween-80); 94 % of control (dose: 75.0 mg/kg/injection, schedule: Q04DX003 (ip), vehicle: saline with Tween-80).
For `COc1ccc(N=Cc2c(O)ccc3ccccc23)cc1`, the T/C by setting is: under setting [3], 107 % of control; under setting [4], 98 % of control; under setting [5], 102 % of control.
For the compound `CCN(CC)C(=O)c1cncc(-c2ccccc2)c1`, the T/C was 97 % of control under setting [9] and 98 % of control (dose: 200.0 mg/kg/injection, schedule: Q01DX001 (ip), vehicle: Klucel (hydroxypropylcellulose) (HPC)).

For the origin of these results see PubChem BioAssay AID248 (DTP/NCI, 2004).
